Target: α7 nAChR subtype (Rattus norvegicus, UniProt Q05941)
Assay type: binding
Details: read-out: KD of the radioligand (saturation curve, one site model)

Chain of α7 nAChR subtype (Q05941 23-502 limits assumed): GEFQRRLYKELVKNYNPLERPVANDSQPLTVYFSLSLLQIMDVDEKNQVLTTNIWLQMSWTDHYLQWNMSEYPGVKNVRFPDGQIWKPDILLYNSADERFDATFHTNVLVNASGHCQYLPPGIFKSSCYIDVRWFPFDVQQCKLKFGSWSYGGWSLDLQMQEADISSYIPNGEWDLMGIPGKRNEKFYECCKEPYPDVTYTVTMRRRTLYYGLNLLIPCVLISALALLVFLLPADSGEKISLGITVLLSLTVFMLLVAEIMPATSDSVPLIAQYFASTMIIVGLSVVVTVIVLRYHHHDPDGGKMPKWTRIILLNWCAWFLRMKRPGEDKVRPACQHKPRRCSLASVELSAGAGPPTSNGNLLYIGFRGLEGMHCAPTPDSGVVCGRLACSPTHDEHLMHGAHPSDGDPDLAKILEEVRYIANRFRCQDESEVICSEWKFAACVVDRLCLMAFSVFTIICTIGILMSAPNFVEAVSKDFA

^125I-α-Bungarotoxin [^125I-α-BTX] gave a Kd of 1.67 nM.

Reference: patent US20050239774A1 (priority 2002, published 2005)
